Results as given in patent publication US20100056623A1, “FUMAGILLOL DERIVATIVES OR METHOD FOR PREPARATION OF FUMAGILLOL DERIVATIVES, AND PHARMACEUTICAL COMPOSITIONS COMPRISING THE SAME” (CHONG KUN DANG PHARMACEUTICAL CORP., priority 2005, published 2010).
Where two headings read alike, the source gives them in different places.

What was measured:
[1] = 1 month
Procedure: (§4) Each compound of the present invention was kept in an air-tight vessel for 1 month at 40±2° C. and 75±5% of relative humidity. Thereafter the HPLC purity test was executed.
(§5) 25 mL of the solution was precisely taken, and poured into 100 mL volumetric flask. Acetonitrile/20 mM ammonium acetate aqueous solution (50:50) was added thereto to be the total volume of 100 ml. The solution was filtrated, and the filtrate was used as a test liquid.
(§6) (2) Operational Condition of Instrument. • Column: Kromasil®C18 (UG 100 Å, 5 μm, 4.6 mm Φ×250 mm) • Column temperature: 30° C. • Mobil phase: 20 mM ammonium acetate (pH 4.2) buffer:acetonitrile (55:45) • Injection volume: 20 μL • Flow rate: 1.2 mL/min • Detector: UV light-absorption Spectrophotometer (detection wavelength: 306 nm)

Solubility test = assay type: physicochemical; settings: ordinary temperature
Procedure: To a constant amount (400 mg) of each compounds of present invention, a constant amount of demineralized water, methanol and ethanol were added separately, and the solution was stirred at ordinary temperature.

[2] = Chemical stability test (HPLC purity); settings: for change of purity (in words) / 1 month Other peaks (%) / 1 month Parent peak (%) / chemical stability compared to known compounds: 1 month at 40±2° C.; for change of purity (in words) / 1 month Other peaks (%) / 1 month Parent peak (%) / change of purity (%) / chemical stability compared to known compounds: 75±5% relative humidity; for 1 month Other peaks (%) / 1 month Parent peak (%) / Initial Other peaks (%) / Initial Parent peak (%): HPLC; for 1 month Other peaks (%) / 1 month Parent peak (%): air-tight vessel; for change of purity (%): initial vs 1 month at 40±2° C.
Procedure: as §4, §5, §6

SD rats = experiment: Acute oral toxicity test on rats; assay type: in vivo; settings: single oral dose 1 g/kg/15 ml in 0.5% methylcellulose
Procedure: The acute toxicity test was carried out using 6-weeks-old SD rats. Each Example of O-(4-(2-hydroxyethoxy)cinnamoyl)fumagillol (a compound of the Example 1), O-(3,5-dimethoxy-4-(2-hydroxyethoxy)cinnamoyl)fumagillol (a compound of the Example 2) and O-(4-(2-hydroxyethoxy)-3-methoxycinnamoyl)fumagillol (a compound of the Example 3) was suspended in 0.5% methylcellulose, and then orally administrated once to 5 of each male and each female rats per group by dosage of 1 g/kg/15 ml. After administrating the test substances, the death of the rats, clinic symptoms and the change of weight were observed. And also hematologic and blood biochemical tests were executed, the abnormality of abdominal and thoracic organs was observed by autopsy with the naked eye.

[3] = tested on: CPAE (calf pulmonary artery endothelial cell); experiment: Inhibiting activity on cell proliferation, SRB analysis (CPAE); assay type: cell-based; settings: for IC50: CPAE cells, 3 days with drug, SRB, read-out: IC50 (nM) CAPE; for effect compared to CKD-731 against CPAE: relative to CKD-731; for effect compared to CKD-731 against SI: safety/selectivity index relative to CKD-731; for Selectivity Index (L5178Y/CAPE): IC50 L5178Y / IC50 CPAE
Procedure: (§1) In order to compare the safety index (SI) of CPAE (calf pulmonary artery endothelial cell) with that of HUVEC (human umbilical vein endothelial cell), L5178Y lymphoma that was isolated from murine thymus was used. The safety index was defined as IC50 ratio of L5178Y against CPAE (IC50L5178Y/IC50CPAE). All cell lines, which had been kept in liquid nitrogen tank, were used after being thawed and subcultured 2˜3 times in T-flask. CPAE, HUVEC and L5178Y were cultured in MEM culture medium (20% FBS, 50˜100 μg/ml ECGS, 0.15% baking soda, 0.05 mg/ml gentamicin), M199 culture medium (20% FBS, 0.22% baking soda, 100 μg/ml heparin, 3 ng/ml bFGF, 0.05 mg/ml gentamicin) and RPMI 1640 culture medium (10% FBS, 0.2% baking soda, 0.05 mg/ml gentamicin), respectively, under the condition of 37° C. and 5% CO2.
(§2) The drug was prepared by being gradationally diluted to two or ten times by using PBS, 20 μl of the solution was added to each well of 96 well plate in triplicate. The cell, which is being incubated, was treated with trypsin to give cell suspension. The number of cell thereafter was counted. And 180 μl of the solution was inoculated to each well and cultured.
(§3) The cell was cultured with drugs for 3 days and then 50 μl of 50% TCA was added thereto (final concentration 10%). Subsequently the cell was fixed by being left alone at 4° C. for 1 hour. The well was washed 4 times by distilled water and then dried. After that 100 μl of SRB (Sulforhodamine B, Sigma Chemical Co.) solution (0.4% w/v in 1% acetic acid) was added thereto and then it was left alone at ordinary temperature for 30 minutes. Thereafter the well was washed 4 times by 1% acetic acid and dried. And then after adding 200 μl of 10 mM tris buffer, the absorbance at 570 nm was measured by automatic microplate reader (Model: Elx 808, Bio-Tek Instrument, INC). The viability was calculated from the ratio of the absorbance of the control to which drugs were not added and the well to which drugs were added.

L5178Y lymphoma = experiment: Inhibiting activity on cell proliferation, MTT analysis (L5178Y); assay type: cell-based, murine; settings: L5178Y lymphoma cells, 3 days with drug
Procedure: as §1, §2
The tumor cell was cultured with drugs for 3 days and then 50 μl of MTT (3-(4,5-dimethylthiazole-2-yl)-2,5-diphenyl tetrazolium bromide, Sigma Chemical Co.) solution (2.5 mg/ml in PBS) was added thereto. And it was further cultured for 4 hours at 37° C. Culture medium was removed carefully. And after dissolving formazan crystal by adding 150 μl of DMSO, the absorbance at 570 nm was determined.

[4] = tested on: HUVEC (human umbilical vein endothelial cell); experiment: Inhibiting activity on cell proliferation, SRB analysis (HUVEC); assay type: cell-based; settings: HUVEC cells, 3 days with drug
Procedure: as §1, §2, §3

[5] = Bos taurus, Endothelial cell, 72 h

## COc1cc(/C=C/C(=O)O[C@@H]2CC[C@]3(CO3)[C@@H]([C@@]3(C)O[C@@H]3CC=C(C)C)[C@@H]2OC)ccc1OCCO [Example 3, O-(4-(2-hydroxyethoxy)-3-methoxycinnamoyl)fumagillol]
[1]
  chemical stability compared to known compounds: more excellent chemical stability than TNP-470, CKD-732 and CKD-731
Solubility test
  The amount of solvent to dissolve 1 g of the compounds (ml), demineralized water: 142 mL
  The amount of solvent to dissolve 1 g of the compounds (ml), ethanol: 61 mL
  The amount of solvent to dissolve 1 g of the compounds (ml), methanol: 45 mL
[2]
  change of purity (in words): hardly showed a change of purity
  1 month Other peaks (%): 1.6%
  1 month Parent peak (%): 98.4%
  Initial Other peaks (%): 1.5%
  Initial Parent peak (%): 98.5%
  change of purity (%): 0.1%
SD rats
  clinic symptoms, death and change by toxicity (autopsy): no notable clinic symptoms, death and change by toxicity
[3]; [5]
  IC50: 0.0045 nM
[3]
  effect compared to CKD-731 against CPAE: equivalent or not smaller than twice effect of CKD-731
  effect compared to CKD-731 against SI: equivalent or more effect of CKD-731
L5178Y lymphoma; Mus musculus, 72 h
  IC50: 56400 nM

## CO[C@@H]1[C@H](OC(=O)C=Cc2ccc(OCCN(C)C)cc2)CC[C@]2(CO2)[C@H]1[C@@]1(C)O[C@@H]1CC=C(C)C [CKD-732, O-(4-dimethylaminoethoxycinnamoyl)fumagillol, reference compound]
Solubility test
  The amount of solvent to dissolve 1 g of the compounds (ml), demineralized water: 1100 mL
  The amount of solvent to dissolve 1 g of the compounds (ml), ethanol: 219 mL
  The amount of solvent to dissolve 1 g of the compounds (ml), methanol: 197 mL
[2]
  1 month Other peaks (%): 4.6%
  1 month Parent peak (%): 95.4%
  Initial Other peaks (%): 0.8%
  Initial Parent peak (%): 99.2%
  change of purity (%): 3.8%
[4]
  IC50: 0.0066 nM
[3]
  IC50: 0.648 nM
  Selectivity Index (L5178Y/CAPE): 1.35 × 10^4
L5178Y lymphoma
  IC50: 8720 nM

## CO[C@@H]1[C@H](OC(=O)/C=C/c2ccc(Cl)c(NCCO)c2)CC[C@]2(CO2)[C@H]1[C@@]1(C)O[C@@H]1CC=C(C)C [Example 7, O-(4-chloro-3-(2-hydroxyethylamino)cinnamoyl)fumagillol]
Solubility test
  The amount of solvent to dissolve 1 g of the compounds (ml), demineralized water: 137 mL
  The amount of solvent to dissolve 1 g of the compounds (ml), ethanol: 67 mL
  The amount of solvent to dissolve 1 g of the compounds (ml), methanol: 42 mL
[2]
  chemical stability compared to known compounds: more excellent chemical stability than TNP-470, CKD-732 and CKD-731
  1 month Other peaks (%): 1.1%
  1 month Parent peak (%): 98.9%
  Initial Other peaks (%): 0.6%
  Initial Parent peak (%): 99.4%
  change of purity (%): 0.5%
[4]; Homo sapiens, 72 h
  IC50: 0.0017 nM
[3]; [5]
  IC50: 0.0065 nM
[3]
  Selectivity Index (L5178Y/CAPE): 4.77 × 10^6
L5178Y lymphoma; Mus musculus, 72 h
  IC50: 31000 nM

## CO[C@@H]1[C@H](OC(=O)NC(=O)CCl)CC[C@]2(CO2)[C@H]1[C@@]1(C)O[C@@H]1CC=C(C)C [TNP-470, O-chloroacetylcarbamoylfumagillol, reference compound]
Solubility test
  The amount of solvent to dissolve 1 g of the compounds (ml), demineralized water: 876 mL
  The amount of solvent to dissolve 1 g of the compounds (ml), ethanol: 250 mL
  The amount of solvent to dissolve 1 g of the compounds (ml), methanol: 208 mL
[2]
  1 month Other peaks (%): 3.5%
  1 month Parent peak (%): 96.5%
  Initial Other peaks (%): 1.3%
  Initial Parent peak (%): 98.7%
  change of purity (%): 2.2%
[4]; Homo sapiens, 72 h
  IC50: 0.00896 nM
[3]; [5]
  IC50: 0.449 nM
[3]
  Selectivity Index (L5178Y/CAPE): 3.85 × 10^3
L5178Y lymphoma; Mus musculus, 72 h
  IC50: 4300 nM

## CO[C@@H]1[C@H](OC(=O)/C=C/c2cccc(NCCO)c2)CC[C@]2(CO2)[C@H]1[C@@]1(C)O[C@@H]1CC=C(C)C [Example 6, O-(3-(2-hydroxyethylamino)cinnamoyl)fumagillol]
Solubility test
  The amount of solvent to dissolve 1 g of the compounds (ml), demineralized water: 130 mL
  The amount of solvent to dissolve 1 g of the compounds (ml), ethanol: 58 mL
  The amount of solvent to dissolve 1 g of the compounds (ml), methanol: 31 mL
[2]
  chemical stability compared to known compounds: more excellent chemical stability than TNP-470, CKD-732 and CKD-731
  1 month Other peaks (%): 1.9%
  1 month Parent peak (%): 98.1%
  Initial Other peaks (%): 1.4%
  Initial Parent peak (%): 98.6%
  change of purity (%): 0.5%
[4]; Homo sapiens, 72 h
  IC50: 0.00222 nM
[3]; [5]
  IC50: 0.0071 nM
[3]
  Selectivity Index (L5178Y/CAPE): 3.88 × 10^6
L5178Y lymphoma; Mus musculus, 72 h
  IC50: 27700 nM

## COc1cc(/C=C/C(=O)O[C@@H]2CC[C@]3(CO3)[C@@H]([C@@]3(C)O[C@@H]3CC=C(C)C)[C@@H]2OC)cc(OC)c1OCCO [Example 2, O-(3,5-dimethoxy-4-(2-hydroxyethoxy)cinnamoyl)fumagillol]
[1]
  chemical stability compared to known compounds: more excellent chemical stability than TNP-470, CKD-732 and CKD-731
Solubility test
  The amount of solvent to dissolve 1 g of the compounds (ml), demineralized water: 146 mL
  The amount of solvent to dissolve 1 g of the compounds (ml), ethanol: 59 mL
  The amount of solvent to dissolve 1 g of the compounds (ml), methanol: 37 mL
[2]
  change of purity (in words): hardly showed a change of purity
  1 month Other peaks (%): 0.9%
  1 month Parent peak (%): 99.1%
  Initial Other peaks (%): 0.9%
  Initial Parent peak (%): 99.1%
  change of purity (%): 0%
SD rats
  clinic symptoms, death and change by toxicity (autopsy): no notable clinic symptoms, death and change by toxicity
[3]; [5]
  IC50: 0.0025 nM
[3]
  Selectivity Index (L5178Y/CAPE): 1.00 × 10^7
  effect compared to CKD-731 against CPAE: equivalent or not smaller than twice effect of CKD-731
  effect compared to CKD-731 against SI: equivalent or more effect of CKD-731
L5178Y lymphoma; Mus musculus, 72 h
  IC50: 25000 nM

## CO[C@@H]1[C@H](OC(=O)/C=C/c2ccc(NCCO)cc2)CC[C@]2(CO2)[C@H]1[C@@]1(C)O[C@@H]1CC=C(C)C [Example 5, O-(4-(2-hydroxyethylamino)cinnamoyl)fumagillol]
Solubility test
  The amount of solvent to dissolve 1 g of the compounds (ml), demineralized water: 132 mL
  The amount of solvent to dissolve 1 g of the compounds (ml), ethanol: 60 mL
  The amount of solvent to dissolve 1 g of the compounds (ml), methanol: 39 mL
[2]
  chemical stability compared to known compounds: more excellent chemical stability than TNP-470, CKD-732 and CKD-731
  1 month Other peaks (%): 1.5%
  1 month Parent peak (%): 98.5%
  Initial Other peaks (%): 0.8%
  Initial Parent peak (%): 99.2%
  change of purity (%): 0.7%
[4]; Homo sapiens, 72 h
  IC50: 0.00104 nM
[3]; [5]
  IC50: 0.0061 nM
[3]
  Selectivity Index (L5178Y/CAPE): 1.16 × 10^6
L5178Y lymphoma; Mus musculus, 72 h
  IC50: 7110 nM
